Consider 3 molecules from article PMC4959548 (Biochemical pharmacology, 2015).

Common to all, as to assay: flow cytometry uptake in Sf9 cells expressing the transporter
(A flow cytometer gives signals particle by particle.)

In one data set the target is T1, OATP1B3 (Homo sapiens, UniProt Q9NPD5).
T1 sequence (Q9NPD5 1-702): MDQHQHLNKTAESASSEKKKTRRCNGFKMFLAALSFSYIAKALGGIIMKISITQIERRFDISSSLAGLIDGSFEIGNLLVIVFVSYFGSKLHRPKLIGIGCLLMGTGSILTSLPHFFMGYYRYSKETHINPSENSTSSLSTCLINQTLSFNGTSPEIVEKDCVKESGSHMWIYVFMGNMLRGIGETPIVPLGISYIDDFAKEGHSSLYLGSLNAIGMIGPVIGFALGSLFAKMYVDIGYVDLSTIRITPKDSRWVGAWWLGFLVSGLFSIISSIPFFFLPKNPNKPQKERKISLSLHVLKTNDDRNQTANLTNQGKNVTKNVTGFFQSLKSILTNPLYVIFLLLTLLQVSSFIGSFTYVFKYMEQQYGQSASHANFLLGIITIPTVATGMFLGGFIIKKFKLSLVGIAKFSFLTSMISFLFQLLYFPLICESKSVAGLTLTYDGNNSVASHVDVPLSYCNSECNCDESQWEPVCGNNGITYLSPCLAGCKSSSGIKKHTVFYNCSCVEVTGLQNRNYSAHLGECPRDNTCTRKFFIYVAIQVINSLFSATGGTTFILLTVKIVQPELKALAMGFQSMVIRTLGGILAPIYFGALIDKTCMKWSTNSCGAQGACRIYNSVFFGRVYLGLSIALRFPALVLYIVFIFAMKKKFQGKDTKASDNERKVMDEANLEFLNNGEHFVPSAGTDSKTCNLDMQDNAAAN
Type of data set: cell-based.

The target of another data set is T2, OATP1B1 (Homo sapiens, UniProt Q9Y6L6).
T2 sequence (Q9Y6L6 1-691): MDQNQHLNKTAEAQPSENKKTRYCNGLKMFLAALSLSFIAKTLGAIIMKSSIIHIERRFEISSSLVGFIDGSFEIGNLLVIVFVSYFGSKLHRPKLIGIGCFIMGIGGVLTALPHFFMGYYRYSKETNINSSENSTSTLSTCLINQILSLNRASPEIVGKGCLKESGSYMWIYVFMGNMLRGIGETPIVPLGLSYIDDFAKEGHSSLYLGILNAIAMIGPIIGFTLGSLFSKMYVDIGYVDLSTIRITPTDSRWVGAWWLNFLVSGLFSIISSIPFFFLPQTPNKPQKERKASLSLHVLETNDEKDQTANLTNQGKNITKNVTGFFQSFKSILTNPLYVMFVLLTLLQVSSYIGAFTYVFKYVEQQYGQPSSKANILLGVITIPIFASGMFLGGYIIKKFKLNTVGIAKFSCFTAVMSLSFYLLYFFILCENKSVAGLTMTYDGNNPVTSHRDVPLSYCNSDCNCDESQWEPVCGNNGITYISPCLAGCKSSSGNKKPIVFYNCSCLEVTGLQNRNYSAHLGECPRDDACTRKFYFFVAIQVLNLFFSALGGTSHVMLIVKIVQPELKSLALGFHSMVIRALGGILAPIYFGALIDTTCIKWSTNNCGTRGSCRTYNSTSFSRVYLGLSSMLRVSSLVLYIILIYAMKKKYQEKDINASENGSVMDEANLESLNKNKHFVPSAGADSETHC
Type of data set: cell-based.

Substrate in data set [1]: O=C1OC2(c3ccc(O)cc3Oc3cc(O)ccc32)c2ccccc21
The data set is classed as cell-based, Homo sapiens.

Consider `O=C1OC2(c3ccc(O)cc3Oc3cc(O)ccc32)c2ccccc21` [Na-Fluo, sodium fluorescein], for which, at OATP1B3, the Km is 38.6 µM.

fluorescein-methotrexate [Fl-MTX]: the Km on OATP1B3 came to 0.53 µM; at OATP1B1, 0.23 µM.

B1: OATP1B1 (Homo sapiens) (protein)
chain: T2 sequence (Q9Y6L6 1-691)
As for B1, in data set [1], the Km came out at 25.73 µM.

The Km is the concentration of substrate that gives half-maximal velocity.
